Data: article PMC8745314, “Novel Tetrazole-Based Antimicrobial Agents Targeting Clinical Bacteria Strains: Exploring the Inhibition of Staphylococcus aureus DNA Topoisomerase IV and Gyrase” (International Journal of Molecular Sciences, 2021)

What was measured:
[1] = system: standard and clinical Gram-positive and Gram-negative bacterial strains; assay: MIC range over standard and clinical strains (abstract); assay type: cell-based
Method: Eleven novel imide-tetrazoles were synthesized. In the initial stage of research, in silico structure-based pharmacological prediction was conducted. All compounds were screened for antimicrobial activity using standard and clinical strains. Within the studied group, compounds 1–3 were recognized as leading structures with the most promising results in antimicrobial studies. […] Additionally, all three inhibited the growth of all clinical Staphylococci panels: Staphylococcus aureus (T5592; T5591) and Staphylococcus epidermidis (5253; 4243) with MIC values of 0.8 μg/mL. Selected compounds were examined in topoisomerase IV decatenation assay and DNA gyrase supercoiling assay, followed by suitable molecular docking studies to explore the possible binding modes. […] The compounds 1–3 proposed here provide a promising basis for further exploration towards novel antimicrobial drug candidates.
The antimicrobial assays were conducted using reference strains of bacteria derived from international microbe collections: American Type Culture Collection (ATCC) and National Collection of Type Culture (NCTC). The following standard strains of bacteria were used: Gram-positive—Staphylococcus aureus NCTC 4163, Staphylococcus aureus ATCC 25923, Staphylococcus aureus ATCC 6538, Staphylococcus aureus ATCC 29213, Staphylococcus epidermidis ATCC 12228, Staphylococcus epidermidis ATCC 35984, Gram-negative: Escherichia coli ATCC 25922, Pseudomonas aeruginosa ATCC 15442. […] MIC was determined by the two-fold serial broth microdilution method in 96-well microtitration plates using Mueller–Hinton II broth medium (Becton Dickinson, Franklin Lakes, NJ, USA). […]

[2] = target: S. aureus topoisomerase IV (Staphylococcus aureus, UniProt P0C1S7+P0C1U9); assay: Topoisomerase IV decatenation assay; assay type: biochemical; conditions: decatenation of kinetoplast DNA, read-out: IC50 ± S.E.M. for Topoisomerase IV (converted)
S. aureus topoisomerase IV, sequence (P0C1S7 whole entry): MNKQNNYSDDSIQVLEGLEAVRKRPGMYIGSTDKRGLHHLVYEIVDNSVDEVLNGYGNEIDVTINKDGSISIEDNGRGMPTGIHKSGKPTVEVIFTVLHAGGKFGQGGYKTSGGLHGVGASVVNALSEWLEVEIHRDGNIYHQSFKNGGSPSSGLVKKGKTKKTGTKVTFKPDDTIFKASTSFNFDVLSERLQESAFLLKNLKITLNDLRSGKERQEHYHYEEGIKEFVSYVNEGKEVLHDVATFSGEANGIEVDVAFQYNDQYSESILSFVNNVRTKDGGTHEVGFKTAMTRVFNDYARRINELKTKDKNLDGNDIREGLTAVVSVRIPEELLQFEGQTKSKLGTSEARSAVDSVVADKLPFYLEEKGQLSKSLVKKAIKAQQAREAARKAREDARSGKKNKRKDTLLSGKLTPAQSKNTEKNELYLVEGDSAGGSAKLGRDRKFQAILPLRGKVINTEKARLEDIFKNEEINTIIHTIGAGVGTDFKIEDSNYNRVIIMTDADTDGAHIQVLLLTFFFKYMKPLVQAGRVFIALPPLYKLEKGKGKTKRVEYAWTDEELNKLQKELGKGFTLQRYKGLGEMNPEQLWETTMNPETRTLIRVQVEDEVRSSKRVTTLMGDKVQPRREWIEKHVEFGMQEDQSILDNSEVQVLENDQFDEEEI
S. aureus topoisomerase IV, sequence (P0C1U9 whole entry): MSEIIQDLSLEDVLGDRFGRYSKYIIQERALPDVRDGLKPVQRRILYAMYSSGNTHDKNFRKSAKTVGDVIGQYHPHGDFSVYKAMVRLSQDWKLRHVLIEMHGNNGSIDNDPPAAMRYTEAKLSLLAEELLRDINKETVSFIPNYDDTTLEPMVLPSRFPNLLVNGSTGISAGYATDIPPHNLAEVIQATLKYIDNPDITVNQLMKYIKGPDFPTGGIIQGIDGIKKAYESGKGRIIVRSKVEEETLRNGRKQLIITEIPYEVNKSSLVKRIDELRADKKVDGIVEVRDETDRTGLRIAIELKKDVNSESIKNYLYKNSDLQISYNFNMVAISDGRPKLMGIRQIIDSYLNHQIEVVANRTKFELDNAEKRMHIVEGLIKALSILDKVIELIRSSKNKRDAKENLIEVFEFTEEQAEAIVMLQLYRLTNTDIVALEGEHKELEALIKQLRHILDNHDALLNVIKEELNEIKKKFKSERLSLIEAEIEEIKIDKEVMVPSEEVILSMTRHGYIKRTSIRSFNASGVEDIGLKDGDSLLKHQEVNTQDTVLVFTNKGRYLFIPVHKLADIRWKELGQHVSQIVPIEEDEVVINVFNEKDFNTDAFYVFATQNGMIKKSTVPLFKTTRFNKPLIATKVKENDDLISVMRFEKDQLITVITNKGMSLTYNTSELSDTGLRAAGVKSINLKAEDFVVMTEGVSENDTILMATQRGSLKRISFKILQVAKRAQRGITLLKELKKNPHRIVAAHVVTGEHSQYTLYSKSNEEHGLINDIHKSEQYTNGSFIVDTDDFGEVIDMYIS
Method: (§1) Description related to conducted biological studies including cell culture, suitable conditions, and methodology was presented in our previous paper.
Figure 1 The effect of tested compounds on S. aureus topoisomerase IV activity. Decreasing amounts of 1, 2, or 3 were incubated with 200 ng kinetoplast DNA and run-on agarose gel. Lane: 1–5: compound 3 at concentrations 64, 32, 8, 2, 0.5 μg/mL, respectively. Lane: 6–10: compound 2 at concentrations 64, 32, 8, 2, 0.5 μg/mL, respectively. Lane: 11–15: compound 1 at concentrations 64, 32, 8, 2, 0.5 μg/mL, respectively.

S. aureus DNA gyrase = S. aureus DNA gyrase (Staphylococcus aureus, UniProt P0A0K8+P20831); assay: DNA gyrase supercoiling assay; assay type: biochemical; conditions: pBR322, read-out: IC50 ± S.E.M. for DNA Gyrase (converted)
S. aureus DNA gyrase, sequence (P0A0K8 whole entry): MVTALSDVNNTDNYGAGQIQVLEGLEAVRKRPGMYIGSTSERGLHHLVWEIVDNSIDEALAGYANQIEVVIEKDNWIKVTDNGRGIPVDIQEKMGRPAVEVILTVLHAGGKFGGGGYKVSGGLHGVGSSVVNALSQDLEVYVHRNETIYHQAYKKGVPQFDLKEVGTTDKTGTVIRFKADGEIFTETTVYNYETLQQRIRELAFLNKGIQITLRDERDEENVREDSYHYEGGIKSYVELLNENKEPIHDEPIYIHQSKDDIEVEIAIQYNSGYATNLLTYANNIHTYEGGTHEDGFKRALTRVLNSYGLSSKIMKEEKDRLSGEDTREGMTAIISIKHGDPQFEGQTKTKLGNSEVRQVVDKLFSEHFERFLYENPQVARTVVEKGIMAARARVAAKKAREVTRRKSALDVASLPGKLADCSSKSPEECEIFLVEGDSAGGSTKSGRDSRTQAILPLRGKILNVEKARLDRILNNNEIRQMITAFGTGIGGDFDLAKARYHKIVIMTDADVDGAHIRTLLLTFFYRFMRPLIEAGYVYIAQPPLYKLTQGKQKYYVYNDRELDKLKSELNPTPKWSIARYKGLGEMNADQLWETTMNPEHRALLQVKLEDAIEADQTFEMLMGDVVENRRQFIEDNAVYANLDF
S. aureus DNA gyrase, sequence (P20831 whole entry): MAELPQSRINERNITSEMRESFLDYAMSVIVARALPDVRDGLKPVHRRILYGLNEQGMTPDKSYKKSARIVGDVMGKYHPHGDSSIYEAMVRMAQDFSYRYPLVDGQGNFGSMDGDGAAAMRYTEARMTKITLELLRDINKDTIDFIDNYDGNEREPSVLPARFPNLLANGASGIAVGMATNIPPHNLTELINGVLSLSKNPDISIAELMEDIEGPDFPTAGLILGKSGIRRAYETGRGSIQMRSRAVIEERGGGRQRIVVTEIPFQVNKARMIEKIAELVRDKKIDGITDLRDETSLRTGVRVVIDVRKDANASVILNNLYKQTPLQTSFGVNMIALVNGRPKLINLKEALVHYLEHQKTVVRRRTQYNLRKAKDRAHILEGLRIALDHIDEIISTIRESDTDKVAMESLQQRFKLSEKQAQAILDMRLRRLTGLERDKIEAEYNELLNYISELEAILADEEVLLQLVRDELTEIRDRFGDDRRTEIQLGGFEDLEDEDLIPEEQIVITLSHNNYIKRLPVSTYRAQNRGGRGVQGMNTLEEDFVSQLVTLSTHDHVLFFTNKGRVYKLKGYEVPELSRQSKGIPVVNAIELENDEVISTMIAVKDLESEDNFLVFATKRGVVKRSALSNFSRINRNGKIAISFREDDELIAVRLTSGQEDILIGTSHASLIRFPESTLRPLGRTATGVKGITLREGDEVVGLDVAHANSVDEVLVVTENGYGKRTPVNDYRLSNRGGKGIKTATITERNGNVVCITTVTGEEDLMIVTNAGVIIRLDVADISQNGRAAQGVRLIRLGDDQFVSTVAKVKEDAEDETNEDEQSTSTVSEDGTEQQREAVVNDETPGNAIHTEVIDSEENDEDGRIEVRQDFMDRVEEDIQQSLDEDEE
Method: as §1
Figure 2 The influence of tested compounds on S. aureus DNA gyrase activity. Decreasing amounts of 1, 2, or 3 were incubated with supercoiled pBR322 plasmid DNA (500 ng) and run-on agarose gel. Lane 1: S. aureus DNA gyrase assay with DMSO (control). Lane: 2–5: compound 3 at concentrations 64, 32, 8, 2 μg/mL, respectively. Lane: 6–9: compound 2 at concentrations 64, 32, 8, 2 μg/mL, respectively. Lane: 10–13: compound 1 at concentrations 64, 32, 8, 2 μg/mL, respectively.

| Structure (SMILES) | MIC values, range [1] [µg/mL] | IC50 [2] [µM] | IC50 (S. aureus DNA gyrase) [µM] |
| --- | --- | --- | --- |
| CC1=C(C)C2(C)CC1(C)C1C(=O)N(Nc3nnnn3-c3ccccc3Cl)C(=O)C12 (stereo not drawn) [Compound 2, 2-((1-(2-Chlorophenyl)-1H-tetrazol-5-yl)amino)-4,5,6,7-tetramethyl-3a,4,7,7a-tetrahydro-1H-4,7-methanoisoindole-1,3(2H)-dione] | 0.8 to 3.2 | 141 | 90.9 |
| CC1=C(C)C2(C)CC1(C)C1C(=O)N(Nc3nnnn3-c3cccc(C(F)(F)F)c3)C(=O)C12 (stereo not drawn) [Compound 1, 4,5,6,7-Tetramethyl-2-((1-(3-(trifluoromethyl)phenyl)-1H-tetrazol-5-yl)amino)-3a,4,7,7a-tetrahydro-1H-4,7-methanoisoindole-1,3(2H)-dione] | 0.8 to 3.2 | 142 | 71.8 |
| CC1=C(C)C2(C)CC1(C)C1C(=O)N(Nc3nnnn3-c3ccccc3Br)C(=O)C12 (stereo not drawn) [Compound 3, 2-((1-(2-Bromophenyl)-1H-tetrazol-5-yl)amino)-4,5,6,7-tetramethyl-3a,4,7,7a-tetrahydro-1H-4,7-methanoisoindole-1,3(2H)-dione] | 0.8 to 3.2 | 134 | 99.3 |
